Measurements taken from the supplement of paper PMC4314810.
± gives the standard deviation of the averaged measurements.

Test system: MCF7
Assay: HRG-induced Akt activation (dPAkt = log2 pAkt/Akt HRG-stimulated minus log2 pAkt/Akt basal) (log2 ratio difference); higher = stronger HRG-induced Akt(T308) phosphorylation
Conditions: miRNA mimic concentration 10 nM; time after transfection 72 h; heregulin 10 ng/ml; stimulation time 1 h
In short: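 Akt activation induced by heregulin was calculated as the difference between stimulated and unstimulated log ratios of phospho-Akt to total Akt, then averaged across replicates. The ratio was taken as log2(pAkt/Akt) from In-Cell Western readings of phospho-Akt(T308) and total Akt on an Odyssey, corrected for column-wise fixation decay. Before reading, MCF7 cells ([…], 96-well plates) transfected with 879 miRNA mimics at 10 nM final via Lipofectamine RNAiMax were, after 72 h, given 10 ng/ml heregulin-beta1 for 1 h or no stimulus, then fixed with 4% PFA. Two biological replicates were run.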

| Sequence | HRG-induced Akt activation (log2) |
| --- | --- |
| UCCCACGUUGUGGCCCAGCAG | 1.44 ± 0.14 |
| UCCCCCAGGUGUGAUUCUGAUUU | 1.14 ± 0.29 |
| UCCCUGAGACCCUAACUUGUGA | 1.35 ± 0.79 |
| UCCCUGAGACCCUUUAACCUGUGA | 1.77 ± 0.13 |
| UCCCUGUCCUCCAGGAGCUCACG | 1.79 ± 0.13 |
| UCCCUGUUCGGGCGCCA | 1.65 ± 0.52 |
| UCCGAGCCUGGGUCUCCCUCUU | 1.37 ± 0.23 |
| UCCGGUUCUCAGGGCUCCACC | 1.83 ± 0.26 |
| UCCGUCUCAGUUACUUUAUAGC | 1.63 ± 0.18 |
| UCCUCUUCUCCCUCCUCCCAG | 1.77 ± 0.039 |
| UCCUGCGCGUCCCAGAUGCCC | 1.15 ± 0.34 |
| UCCUGUACUGAGCUGCCCCGAG | 1.79 ± 0.1 |
| UCCUUCAUUCCACCGGAGUCUG | 1.66 ± 0.26 |
| UCCUUCUGCUCCGUCCCCCAG | 1.47 ± 0.042 |
| UCGACAGCACGACACUGCCUUC | 1.4 ± 0.42 |
| UCGAGGAGCUCACAGUCUAGU | 1.71 ± 0.23 |
| UCGCCUCCUCCUCUCCC | 1.47 ± 0.17 |
| UCGGAUCCGUCUGAGCUUGGCU | 1.88 ± 0.18 |
| UCGGCCUGACCACCCACCCCAC | 0.936 ± 0.2 |
| UCGGGGAUCAUCAUGUCACGAGA | 1.93 ± 0.17 |
| UCGUACCGUGAGUAAUAAUGCG | 1.27 ± 0.031 |
| UCGUGCAUCCCUUUAGAGUGUU | 1.6 ± 0.022 |
| UCGUGGCCUGGUCUCCAUUAU | 1.03 ± 0.11 |
| UCGUGUCUUGUGUUGCAGCCGG | 1.14 ± 0.13 |

| Sequence | HRG-induced Akt activation (log2) |
| --- | --- |
| UCGUUUGCCUUUUUCUGCUU | 1.46 ± 0.3 |
| UCUACAAAGGAAAGCGCUUUCU | 1.02 ± 0.55 |
| UCUACAGUGCACGUGUCUCCAG | 1.65 ± 0.062 |
| UCUAGGCUGGUACUGCUGA | 1.57 ± 0.13 |
| UCUAGUAAGAGUGGCAGUCGA | 1.322 ± 0.0056 |
| UCUAUACAGACCCUGGCUUUUC | 1.14 ± 0.18 |
| UCUCACACAGAAAUCGCACCCGU | 1.92 ± 0.12 |
| UCUCCCAACCCUUGUACCAGUG | 1.51 ± 0.26 |
| UCUCGCUGGGGCCUCCA | 1.22 ± 0.36 |
| UCUCUGGAGGGAAGCACUUUCUG | 1.33 ± 0.18 |
| UCUCUGGGCCUGUGUCUUAGGC | 1.55 ± 0.3 |
| UCUGCAGGGUUUGCUUUGAG | 1.07 ± 0.059 |
| UCUGCCCCCUCCGCUGCUGCCA | 1.55 ± 0.069 |
| UCUGCUCAUACCCCAUGGUUUCU | 1.15 ± 0.24 |
| UCUGGCUCCGUGUCUUCACUCCC | 0.873 ± 0.15 |
| UCUGGGCAACAAAGUGAGACCU | 0.753 ± 0.69 |
| UCUUCUCUGUUUUGGCCAUGUG | 1.27 ± 0.041 |
| UCUUGGAGUAGGUCAUUGGGUGG | 1.56 ± 0.046 |
| UCUUGUGUUCUCUAGAUCAGU | 1.53 ± 0.22 |
| UCUUUGGUUAUCUAGCUGUAUGA | 1.96 ± 0.15 |
| UGAAACAUACACGGGAAACCUC | 1.0374 ± 0.0008 |
| UGAAGGUCUACUGUGUGCCAGG | 1.11 ± 0.052 |
| UGACAACUAUGGAUGAGCUCU | 1.53 ± 0.29 |
| UGACCGAUUUCUCCUGGUGUUC | 2.09 ± 0.076 |

| Sequence | HRG-induced Akt activation (log2) |
| --- | --- |
| UGAGAACCACGUCUGCUCUGAG | 2.16 ± 0.27 |
| UGAGAACUGAAUUCCAUAGGCU | 2.34 ± 0.1 |
| UGAGAACUGAAUUCCAUGGGUU | 2.55 ± 0.058 |
| UGAGACCUCUGGGUUCUGAGCU | 1.95 ± 0.023 |
| UGAGAUGAAGCACUGUAGCUC | 1.18 ± 0.22 |
| UGAGCCCCUGUGCCGCCCCCAG | 2.137 ± 0.01 |
| UGAGCCCUGUCCUCCCGCAG | 2.24 ± 0.29 |
| UGAGCGCCUCGACGACAGAGCCG | 1.29 ± 0.043 |
| UGAGCUAAAUGUGUGCUGGGA | 1.26 ± 0.69 |
| UGAGCUGCUGUACCAAAAU | 2.107 ± 0.0035 |
| UGAGGCAGUAGAUUGAAU | 1.49 ± 0.26 |
| UGAGGGGCAGAGAGCGAGACUUU | 1.83 ± 0.26 |
| UGAGGUAGGAGGUUGUAUAGUU | 1.11 ± 0.083 |
| UGAGGUAGUAAGUUGUAUUGUU | 1.6 ± 0.43 |
| UGAGGUAGUAGAUUGUAUAGUU | 1.22 ± 0.24 |
| UGAGGUAGUAGGUUGUAUAGUU | 1.26 ± 0.07 |
| UGAGGUAGUAGGUUGUAUGGUU | 1.07 ± 0.07 |
| UGAGGUAGUAGGUUGUGUGGUU | 1.08 ± 0.14 |
| UGAGGUAGUAGUUUGUACAGUU | 1.47 ± 0.12 |
| UGAGGUAGUAGUUUGUGCUGUU | 1.12 ± 0.026 |
| UGAGUACCGCCAUGUCUGUUGGG | 1.98 ± 0.09 |
| UGAGUAUUACAUGGCCAAUCUC | 1.74 ± 0.27 |
| UGAGUGCCGGUGCCUGCCCUG | 1.43 ± 0.08 |
| UGAGUGUGUGUGUGUGAGUGUGU | 2.295 ± 0.0047 |

| Sequence | HRG-induced Akt activation (log2) |
| --- | --- |
| UGAGUUGGCCAUCUGAGUGAG | 1.61 ± 0.27 |
| UGAUAUGUUUGAUAUAUUAGGU | 1.52 ± 0.077 |
| UGAUAUGUUUGAUAUUGGGUU | 1.75 ± 0.041 |
| UGAUUGGUACGUCUGUGGGUAG | 2.35 ± 0.031 |
| UGAUUGUAGCCUUUUGGAGUAGA | 1.96 ± 0.18 |
| UGAUUGUCCAAACGCAAUUCU | 1.82 ± 0.3 |
| UGCAACGAACCUGAGCCACUGA | 1.49 ± 0.14 |
| UGCAACUUACCUGAGUCAUUGA | 1.61 ± 0.13 |
| UGCACCAUGGUUGUCUGAGCAUG | 1.29 ± 0.33 |
| UGCAGGACCAAGAUGAGCCCU | 1.41 ± 0.17 |
| UGCCCUAAAUGCCCCUUCUGGC | 1.36 ± 0.27 |
| UGCCCUUAAAGGUGAACCCAGU | 1.22 ± 0.2 |
| UGCCUACUGAGCUGAAACACAG | 1.549 ± 0.007 |
| UGCCUACUGAGCUGAUAUCAGU | 1.62 ± 0.029 |
| UGCCUGGGUCUCUGGCCUGCGCGU | 1.29 ± 0.18 |
| UGCCUGUCUACACUUGCUGUGC | 1.34 ± 0.089 |
| UGCGGGGCUAGGGCUAACAGCA | 2.49 ± 0.31 |
| UGCUAUGCCAACAUAUUGCCAU | 1.72 ± 0.27 |
| UGCUGGAUCAGUGGUUCGAGUC | 2.32 ± 0.36 |
| UGCUUCCUUUCAGAGGGU | 1.61 ± 0.34 |
| UGGAAGACUAGUGAUUUUGUUGU | 2.15 ± 0.38 |
| UGGAAUGUAAAGAAGUAUGUAU | 1.76 ± 0.27 |
| UGGAAUGUAAGGAAGUGUGUGG | 2.05 ± 0.28 |
| UGGACGGAGAACUGAUAAGGGU | 1.48 ± 0.21 |

| Sequence | HRG-induced Akt activation (log2) |
| --- | --- |
| UGGACUGCCCUGAUCUGGAGA | 1.55 ± 0.66 |
| UGGAGAGAAAGGCAGUUCCUGA | 0.965 ± 0.16 |
| UGGAGGAGAAGGAAGGUGAUG | 1.81 ± 0.038 |
| UGGAGUCCAGGAAUCUGCAUUUU | 0.279 ± 0.71 |
| UGGAGUGUGACAAUGGUGUUUG | 2.527 ± 0.012 |
| UGGAUUUCUUUGUGAAUCACCA | 1.87 ± 0.11 |
| UGGAUUUUUGGAUCAGGGA | 2.21 ± 0.15 |
| UGGCAGGGAGGCUGGGAGGGG | 1.63 ± 0.15 |
| UGGCAGUGUAUUGUUAGCUGGU | 2.12 ± 0.35 |
| UGGCAGUGUCUUAGCUGGUUGU | 1.99 ± 0.091 |
| UGGCCCUGACUGAAGACCAGCAGU | 1.11 ± 0.22 |
| UGGCUCAGUUCAGCAGGAACAG | 0.611 ± 0.18 |
| UGGGAACGGGUUCCGGCAGACGCUG | 1.22 ± 0.16 |
| UGGGCGUAUCUGUAUGCUA | 1.83 ± 0.1 |
| UGGGGAGCUGAGGCUCUGGGGGUG | 1.74 ± 0.26 |
| UGGGUCUUUGCGGGCGAGAUGA | 1.89 ± 0.21 |
| UGGGUGGUCUGGAGAUUUGUGC | 1.58 ± 0.13 |
| UGGGUUCCUGGCAUGCUGAUUU | 1.27 ± 0.13 |
| UGGGUUUACGUUGGGAGAACU | 1.44 ± 0.096 |
| UGGUAGACUAUGGAACGUAGG | 0.953 ± 0.95 |
| UGGUCUAGGAUUGUUGGAGGAG | 1.61 ± 0.078 |
| UGGUGCGGAGAGGGCCCACAGUG | 0.984 ± 0.11 |
| UGGUGGGCACAGAAUCUGGACU | 1.74 ± 0.12 |
| UGGUGGGCCGCAGAACAUGUGC | 1.74 ± 0.035 |

| Sequence | HRG-induced Akt activation (log2) |
| --- | --- |
| UGGUGGUUUACAAAGUAAUUCA | 1.29 ± 0.11 |
| UGGUUCUAGACUUGCCAACUA | 1.94 ± 0.026 |
| UGGUUGACCAUAGAACAUGCGC | 1.2 ± 0.092 |
| UGGUUGUAGUCCGUGCGAGAAUA | 1.37 ± 0.19 |
| UGGUUUACCGUCCCACAUACAU | 0.811 ± 0.33 |
| UGUAAACAUCCCCGACUGGAAG | 0.646 ± 0.057 |
| UGUAAACAUCCUACACUCAGCU | 0.757 ± 0.3 |
| UGUAAACAUCCUACACUCUCAGC | 0.867 ± 0.099 |
| UGUAAACAUCCUCGACUGGAAG | 1.22 ± 0.25 |
| UGUAAACAUCCUUGACUGGAAG | 1.12 ± 0.049 |
| UGUAACAGCAACUCCAUGUGGA | 0.984 ± 0.7 |
| UGUAGUGUUUCCUACUUUAUGGA | 1.77 ± 0.26 |
| UGUCACUCGGCUCGGCCCACUAC | 1.17 ± 0.18 |
| UGUCAGUUUGUCAAAUACCCCA | 1.28 ± 0.73 |
| UGUCUACUACUGGAGACACUGG | 2.12 ± 0.15 |
| UGUCUCUGCUGGGGUUUCU | 1.89 ± 0.58 |
| UGUCUGCCCGCAUGCCUGCCUCU | 2.32 ± 0.13 |
| UGUCUUACUCCCUCAGGCACAU | 1.47 ± 0.054 |
| UGUCUUGCAGGCCGUCAUGCA | 1.68 ± 0.5 |
| UGUGACAGAUUGAUAACUGAAA | 1.84 ± 0.056 |
